From article PMC8830069, “Metallo-β-Lactamase Inhibitor Phosphonamidate Monoesters” (ACS Omega, 2022)

What was measured:
NDM-1 = NDM-1 (Klebsiella pneumoniae, UniProt C7C422); assay: MBL inhibition assay, purified NDM-1, imipenem hydrolysis at 300 nm; assay type: biochemical; conditions: for IC50 against purified NDM-1: imipenem reporter substrate, 10 nM enzyme, 2.5% DMSO, highest inhibitor concentration 800 μM, N.I. and P. not defined
Method: (§1) The inhibitory activities of 1a–h and 2 against the purified NDM-1, GIM-1, and VIM-2 enzymes were evaluated (IC50 data in Table 1). The inhibitory activity was measured by monitoring nitrocefin hydrolysis for VIM-2 and GIM-1 and that of imipenem for NDM-1[19] at λ 482 and 300 nm, respectively. […] This may indicate that unlike the sulfur of captopril, that of 1a and 2 might not coordinate the zinc ions in the active site. Alternatively, this may be a result of disulfide formation under the conditions of the enzyme assay. The hydrophobic 1f–h precipitated during the enzyme assay and their inhibitory activities could therefore not be reliably measured. This is not unusual as the binding cleft of MBL inhibitors is hydrophobic, and accordingly, their inhibitors typically have poor aqueous solubility.[20] The inhibitors may be solubilized by careful dilution of dimethylsulfoxide (DMSO) stock solutions; however, this was not successful for compounds 1f–h.
(§2) The inhibitory activity (IC50) of 1a–h was studied against the MBL enzymes NDM-1, GIM-1, and VIM-2. The buffer used for the studies contained 50 mM HEPES at pH 7.2, 10 μM ZnSO4, 2.5% DMSO, and 0.4 mg/mL bovine serum albumin, used as a prevention of protein unfolding and loss of activity. The enzyme concentration of NDM-1 was 10 nM, of GIM-1 1 nM, and of VIM-2 100 pM. The inhibitors were dissolved in 100% DMSO, and a twofold dilution series was made with a final 2.5% DMSO in the assay. The highest inhibitor concentration was 800 μM. The reporter substrate for VIM-2 and GIM-1 was nitrocefin, while for NDM-1 imipenem, and their absorbance (concentration) was followed at the wavelengths 482 and 300 nm, respectively. L-Captopril and EDTA-Na were used as positive and water and DMSO as negative controls. Measurements were read for 30 min at 298 K.

GIM-1 = GIM-1 (Pseudomonas aeruginosa, UniProt Q704V1); assay: MBL inhibition assay, purified GIM-1, nitrocefin hydrolysis at 482 nm; assay type: biochemical; conditions: for IC50 against purified GIM-1: nitrocefin reporter substrate, 1 nM enzyme, 2.5% DMSO, highest inhibitor concentration 800 μM, N.I. and P. not defined
Method: as §1, §2

VIM-2 = VIM-2 (Escherichia coli, UniProt Q5U7L7); assay: MBL inhibition assay, purified VIM-2, nitrocefin hydrolysis at 482 nm; assay type: biochemical; conditions: for IC50 against purified VIM-2: nitrocefin reporter substrate, 100 pM enzyme, 2.5% DMSO, highest inhibitor concentration 800 μM, N.I. and P. not defined
Method: as §1, §2

in vitro = assay type: cell-based; conditions: human; cell viability after 24 hours incubation, at least two independent experiments; read-out: Cytotoxicity IC50 in HeLa cells
Method: The cytotoxicity of phosphonamidate monoesters was evaluated against HeLa cells (ATCC-CCL-2), which were maintained in Dulbecco’s modified Eagle medium (Thermo Fisher Scientific) supplemented with 10% (v/v) fetal bovine serum (Thermo Fisher Scientific), penicillin (100 units/mL), and streptomycin (100 μg/mL, both from Sigma) at 37 °C, 5% CO2. Cells were seeded in 96-well plates (Corning, Merck) at 20 × 10^3 cells/well and incubated for 24 h (37 °C, 5% CO2). Stock solutions of the compounds were prepared at 150 mM in DMSO (Sigma), and the cells were exposed to a serial dilution and incubated for 24 h. Subsequently, the cells were washed twice with culture medium, and the PrestoBlue reagent (Thermo Fischer Scientific) was directly added to the cells for cell viability determination (1:10 dilution in culture medium). Following recommended incubation times (manufacturer’s instructions), fluorescence was measured using a Spark plate reader (Tecan, Austria) at Ex/Em 560/590 nm and corrected for background fluorescence by including control wells containing only cell culture media (no cells). Data analysis was performed using GraphPad Prism 9.0.0 (GraphPad Software, USA). At least two independent experiments were performed.
Figure S1. Cytotoxicity dose-response curves of phosphonamidate monoesters as determined in HeLa cells. The cells were treated with the compounds at the indicated concentrations, and cell viability was measured after 24 hours incubation. The following IC50 values wer e determined to be (A) 69. 2 µM (SD = 1.0) for KAT -A-109-H2, (B) 201.4 µM (SD = 4.4) for KAT -A-102-H1 and (C) 90.7 µM (SD = 1.0) for KAT -A-118-H1. All remaining compounds (D - H) had IC50 values above 500 µM. Data is shown as mean ± SD of at least two independent experiments.
*A 1h, B 1e, C 1f, D 1a, E 1b, F 1d, G 1c. […]

[1] = Solubility in the MIC assay; assay type: physicochemical; conditions: Muller Hinton II broth
Method: (§3) The in vitro susceptibility of meropenem in combination with the different compounds was evaluated against E. coli expressing NDM-1 in a broth microdilution assay. A 96-well plate was prepared with the compounds in a twofold dilution series (final concentrations 1024–0.5 mg/L) in Muller Hinton II broth (MHB-II) in combination with 2, 4, or 8 mg/L meropenem. EDTA (100 μM) was used in combination with meropenem as control for inhibition of NDM-1. Three–five colonies of E. coli ATCC 25922 NDM-1 were suspended in 0.90% saline solution and adjusted to the 0.5 McFarland turbidity standard. The bacterial suspension was diluted in MHB-II and adjusted to a final inoculum of 5 × 10^5 CFU/mL.
Table S2. Susceptibility assay with E. coli ATCC 25922 NDM-1
Compound Minimum inhibitory concentration (mg/L)
Meropenem:compound ratio Meropenem

E. coli ATCC 25922 NDM-1 = assay type: cell-based; conditions: in combination with EDTA 100 μM (control for inhibition of NDM-1)
Method: as §3

Sequence of GIM-1 (Q704V1 entry or part of it): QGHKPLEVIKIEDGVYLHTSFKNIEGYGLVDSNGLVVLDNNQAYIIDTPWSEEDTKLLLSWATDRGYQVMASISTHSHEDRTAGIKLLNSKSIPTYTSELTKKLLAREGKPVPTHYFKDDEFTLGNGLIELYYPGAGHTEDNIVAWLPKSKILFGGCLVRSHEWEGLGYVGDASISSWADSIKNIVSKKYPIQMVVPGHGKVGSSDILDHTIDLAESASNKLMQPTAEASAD
Sequence of NDM-1 (C7C422 29-270 limits assumed): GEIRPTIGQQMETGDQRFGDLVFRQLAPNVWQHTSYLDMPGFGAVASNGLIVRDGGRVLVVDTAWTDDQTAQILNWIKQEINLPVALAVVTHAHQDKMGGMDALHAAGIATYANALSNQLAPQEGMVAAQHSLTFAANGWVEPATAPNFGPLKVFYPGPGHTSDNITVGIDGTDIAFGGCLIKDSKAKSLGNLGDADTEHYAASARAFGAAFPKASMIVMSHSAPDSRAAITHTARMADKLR

Structure (SMILES)	IC50 against purified NDM-1 (NDM-1)	IC50 against purified GIM-1 (GIM-1)	IC50 (VIM-2) [µM]	IC50 (in vitro) [µM]	IC50 against purified VIM-2 (VIM-2)	Solubility in MIC assay [1]	IC50 (NDM-1) [µM]	IC50 (GIM-1) [µM]	IC50 at 24 h (in vitro) [µM]	Minimum inhibitory concentration of meropenem (E. coli ATCC 25922 NDM-1) [µg/mL]
COC(=O)[C@H](NP(=O)(CCSC(C)=O)OC)c1ccccc1 (mixture of isomers) [1c, Methyl (R)-2-(((R/S)-(2-(Acetylthio)ethyl) (methoxy)phosphoryl)amino)-2-phenylacetate]	N.I	N.I.	500	> 500						
CCO[P@@](=O)(N[C@@H](C(=O)OC)c1ccccc1)[C@@H](CSC(C)=O)Cc1ccccc1 (mixture of isomers) [1g, Methyl (R)-2-(((R/S)-((R/S)-1-(Acetylthio)-3-phenylpropan-2-yl) (ethoxy)phosphoryl)amino)-2-phenylacetate]	P.	P.			P.	could not be dissolved				
CCO[P@](=O)([C@@H](CSC(C)=O)Cc1ccccc1)N(Cc1ccccn1)Cc1ccccn1 (racemic) [1h, S-((R/S)-2-((R/S)-(Bis(pyridin-2-ylmethyl)amino)(ethoxy)phosphoryl)-3-phenylpropyl) Ethanethioate]	P.	P.		69.2	P.					
CCO[P@](=O)([C@@H](CSC(C)=O)Cc1ccccc1)N(C)Cc1ccccn1 (racemic) [1f, S-((R/S)-2-((R/S)-Ethoxy(methyl(pyridin-2-ylmethyl)amino)phosphoryl)-3-phenylpropyl) Ethanethioate]	P.	P.		90.7	P.	could not be dissolved				
COP(=O)(CCS)NCc1ccccn1 (centres unmarked) [compound 2]	N.I.	N.I.			N.I.					
COP(=O)(CCSC(C)=O)N(C)Cc1ccccn1 (racemic) [1b, (R/S)-(2-(Methoxy(methyl(pyridin-2-ylmethyl)amino)phosphoryl)ethyl) Ethanethioate]							356	109	> 500	
COP(=O)(CCSC(C)=O)NCc1ccccn1 (racemic) [1a, (R/S)-(2-(Methoxy((pyridin-2-ylmethyl)amino)phosphoryl)ethyl) Ethanethioate]	N.I.				N.I.			86	> 500	
O=C(O)CN(CCN(CC(=O)O)CC(=O)O)CC(=O)O [EDTA]										< 2
CCOP(=O)(NCc1ccccn1)C(CSC(C)=O)Cc1ccccc1 (racemic) [1e, S-((R/S)-2-((R/S)-(2-(Ethoxy((pyridine-2-ylmethyl)amino)phosphoryl)-3-phenylpropyl) Ethanethioate]	N.I.			201	N.I.	could not be dissolved				
